Test results from ChEMBL document CHEMBL1681632, “2-(4-carbonylphenyl)benzoxazole inhibitors of CETP: scaffold design and advancement in HDLc-raising efficacy” (Bioorg Med Chem Lett, 2011).

Legend:
[1] = tested on: Mus musculus; assay: Antiatherogenic activity in transgenic mouse PD model assessed as rise in HDL-cholesterol level at 10 mg/kg; format: functional
[2] = biological target: T1, Cholesteryl ester transfer protein (Homo sapiens, UniProt P11597); assay: Inhibition of CETP
T1 sequence (P11597 whole entry): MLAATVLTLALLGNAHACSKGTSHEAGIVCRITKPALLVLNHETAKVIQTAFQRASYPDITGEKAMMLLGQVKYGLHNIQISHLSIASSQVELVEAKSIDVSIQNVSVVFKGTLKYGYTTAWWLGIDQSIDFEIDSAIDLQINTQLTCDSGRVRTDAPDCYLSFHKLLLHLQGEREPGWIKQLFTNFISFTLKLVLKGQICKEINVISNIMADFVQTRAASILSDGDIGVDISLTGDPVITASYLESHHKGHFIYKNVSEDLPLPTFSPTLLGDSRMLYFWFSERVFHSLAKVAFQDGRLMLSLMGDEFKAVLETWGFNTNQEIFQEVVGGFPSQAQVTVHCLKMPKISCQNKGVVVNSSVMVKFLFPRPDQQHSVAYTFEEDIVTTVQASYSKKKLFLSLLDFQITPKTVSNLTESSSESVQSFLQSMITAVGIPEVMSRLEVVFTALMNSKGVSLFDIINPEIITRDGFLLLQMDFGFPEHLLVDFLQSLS

| SMILES | Activity [1] [mg/dL] | IC50 [2] [nM] |
| --- | --- | --- |
| Cc1cc(C#N)cc2nc(-c3ccc(NC(=O)CN4CCN(c5ccc(C(F)(F)F)cc5)CC4)cc3)oc12 | 24 | – |
| CC(C)COc1ccccc1-c1ccc(N2CCC(CNC(=O)c3ccc(-c4nc5cc(C#N)cc(C(C)C)c5o4)cc3)CC2)nc1 | – | 31 |
| Cc1cc(C#N)cc2nc(-c3ccc(CC(O)CN4CCN(c5ccc(C(F)(F)F)cc5)CC4)cc3)oc12 (stereo not given) | – | 874 |
| COC(Cc1ccc(-c2nc3cc(C#N)cc(C)c3o2)cc1)CN1CCN(c2ccc(C(F)(F)F)cc2)CC1 (stereo not given) | – | 8940 |
| Cc1cc(C#N)cc2nc(-c3ccc(NCC(O)CN4CCN(c5ccc(C(F)(F)F)cc5)CC4)cc3)oc12 (stereo not given) | – | 18800 |
| Cc1cc(C#N)cc2nc(-c3ccc(N4CCC(N5CCN(c6ccc(C(F)(F)F)cc6)CC5)C4=O)cc3)oc12 (stereo not given) | – | 2740 |
| Cc1cc(C#N)cc2nc(-c3ccc(C(=O)NCCC4CCN(c5ccc(C(F)(F)F)cc5)CC4)cc3)oc12 | – | 11600 |
| Cc1cc(C#N)cc2nc(-c3ccc(C(=O)NCC4CCN(c5ccc(C(F)(F)F)cc5)CC4)cc3)oc12 | – | 300 |
| Cc1cc(C#N)cc2nc(-c3ccc(NC(=O)CN4CCN(c5ccc(C(F)(F)F)cn5)CC4)cc3)oc12 | 21 | 15 |
| CC(C)Oc1ccc(F)cc1-c1ccc(N2CCC(CNC(=O)c3ccc(-c4nc5cc(C#N)cc(C(C)C)c5o4)cc3)CC2)nc1 | 24 | 13 |
| Cc1cc(C#N)cc2nc(-c3ccc(CCCN4CCN(c5ccc(C(F)(F)F)cc5)CC4)cc3)oc12 | – | 975 |
| Cc1cc(C#N)cc2nc(-c3ccc(C#CCN4CCN(c5ccc(C(F)(F)F)cc5)CC4)cc3)oc12 | – | 2170 |
| Cc1cc(C#N)cc2nc(-c3ccc(C(=O)CCN4CCN(c5ccc(C(F)(F)F)cc5)CC4)cc3)oc12 | – | 2050 |
| Cc1cc(C#N)cc2nc(-c3ccc(CC(=O)CN4CCN(c5ccc(C(F)(F)F)cc5)CC4)cc3)oc12 | – | 5740 |
| Cc1cc(C#N)cc2nc(-c3ccc(C(=O)N4CCN(c5ccc(C(F)(F)F)cc5)CC4)cc3)oc12 | – | 4030 |
| Cc1cc(C#N)cc2nc(-c3ccc(OCCN4CCN(c5ccc(C(F)(F)F)cc5)CC4)cc3)oc12 | – | 4550 |
| Cc1cc(C#N)cc2nc(-c3ccc(C(O)CCN4CCN(c5ccc(C(F)(F)F)cc5)CC4)cc3)oc12 (stereo not given) | – | 2250 |
| Cc1cc(C#N)cc2nc(-c3ccc(C(=O)N(C)CC4CCN(c5ccc(C(F)(F)F)cc5)CC4)cc3)oc12 | – | 2610 |
| N#Cc1cc(C2CC2)c2oc(-c3ccc(C(=O)NCC4CCN(c5ccc(C(F)(F)F)cn5)CC4)cc3)nc2c1 | – | 243 |
| N#Cc1cc(C(F)(F)F)c2oc(-c3ccc(C(=O)NCC4CCN(c5ccc(C(F)(F)F)cn5)CC4)cc3)nc2c1 | – | 3190 |
| CC(C)(C)c1cc(C#N)cc2nc(-c3ccc(C(=O)NCC4CCN(c5ccc(C(F)(F)F)cn5)CC4)cc3)oc12 | – | 198 |
| C=C(C)c1cc(C#N)cc2nc(-c3ccc(C(=O)NCC4CCN(c5ccc(C(F)(F)F)cn5)CC4)cc3)oc12 | – | 131 |

| SMILES | Activity [1] [mg/dL] | IC50 [2] [nM] |
| --- | --- | --- |
| CC(C)c1cc(C#N)cc2nc(-c3ccc(C(=O)NCC4CCN(c5ccc(C(F)(F)F)cn5)CC4)cc3)oc12 | 16 | 40 |
| CC(C)c1cc(C#N)cc2nc(-c3ccc(C(=O)NCC4CCN(c5nccc(C(F)(F)F)n5)CC4)cc3)oc12 | 7 | 22 |
| CC(C)c1cc(C#N)cc2nc(-c3ccc(C(=O)NCC4CCN(c5ccccn5)CC4)cc3)oc12 | – | 114 |
| CC(C)c1cc(C#N)cc2nc(-c3ccc(C(=O)NCC4CCN(c5cccc(C(F)(F)F)n5)CC4)cc3)oc12 | – | 37 |
| COc1cccc(N2CCC(CNC(=O)c3ccc(-c4nc5cc(C#N)cc(C(C)C)c5o4)cc3)CC2)n1 | – | 110 |
| CC(C)c1cc(C#N)cc2nc(-c3ccc(C(=O)NCC4CCN(c5cc(C(F)(F)F)ccn5)CC4)cc3)oc12 | – | 61 |
| COC(=O)c1ccc(N2CCC(CNC(=O)c3ccc(-c4nc5cc(C#N)cc(C(C)C)c5o4)cc3)CC2)nc1 | – | 114 |
| COC(=O)c1cccc(N2CCC(CNC(=O)c3ccc(-c4nc5cc(C#N)cc(C(C)C)c5o4)cc3)CC2)n1 | – | 306 |
| CC(C)c1cc(C#N)cc2nc(-c3ccc(C(=O)NCC4CCN(c5cccc(C(=O)O)n5)CC4)cc3)oc12 | – | > 10000 |
| CC(C)c1cc(C#N)cc2nc(-c3ccc(C(=O)NCC4CCN(c5ccc([N+](=O)[O-])cn5)CC4)cc3)oc12 | – | > 10000 |
| CC(C)c1cc(C#N)cc2nc(-c3ccc(C(=O)NCC4CCN(c5ccc(Br)cn5)CC4)cc3)oc12 | – | 223 |
| C=C(C)c1ccc(N2CCC(CNC(=O)c3ccc(-c4nc5cc(C#N)cc(C(C)C)c5o4)cc3)CC2)nc1 | – | 229 |
| CC(C)c1cc(C#N)cc2nc(-c3ccc(C(=O)NCC4CCN(c5ccc(-c6ccccc6)cn5)CC4)cc3)oc12 | 22 | 43 |
| Cc1ccc(-c2ccc(N3CCC(CNC(=O)c4ccc(-c5nc6cc(C#N)cc(C(C)C)c6o5)cc4)CC3)nc2)cc1 | – | 48 |
| Cc1cccc(-c2ccc(N3CCC(CNC(=O)c4ccc(-c5nc6cc(C#N)cc(C(C)C)c6o5)cc4)CC3)nc2)c1 | – | 39 |
| COc1cccc(Cl)c1-c1ccc(N2CCC(CNC(=O)c3ccc(-c4nc5cc(C#N)cc(C(C)C)c5o4)cc3)CC2)nc1 | – | 47 |
| COc1cc(F)c(C(C)C)cc1-c1ccc(N2CCC(CNC(=O)c3ccc(-c4nc5cc(C#N)cc(C(C)C)c5o4)cc3)CC2)nc1 | – | 24 |
| Cc1ccc(OC(C)C)c(-c2ccc(N3CCC(CNC(=O)c4ccc(-c5nc6cc(C#N)cc(C(C)C)c6o5)cc4)CC3)nc2)c1 | 28 | 22 |
| CC(C)Oc1ccc(C(F)(F)F)cc1-c1ccc(N2CCC(CNC(=O)c3ccc(-c4nc5cc(C#N)cc(C(C)C)c5o4)cc3)CC2)nc1 | – | 28 |
| CC(C)c1cc(C#N)cc2nc(-c3ccc(C(=O)NCC4CCN(c5ccc(-c6cc(C(F)(F)F)ccc6OCc6ccccc6)cn5)CC4)cc3)oc12 | – | 413 |
| CC(C)Oc1ccccc1-c1ccc(N2CCC(CNC(=O)c3ccc(-c4nc5cc(C#N)cc(C(C)C)c5o4)cc3)CC2)nc1 | – | 29 |
| CC(C)c1ccccc1-c1ccc(N2CCC(CNC(=O)c3ccc(-c4nc5cc(C#N)cc(C(C)C)c5o4)cc3)CC2)nc1 | – | 19 |
